Measurements as given in PubChem BioAssay (NCI).
“And” between values parts separate entries of the source, which are not always exact repeats. Equal entries are not always repeated.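 Exposure lasted 48 hours, with cells grown in 96-well plates and compounds tested at five concentrations. GI50 is the concentration that inhibits growth by half. TGI: concentration producing complete growth inhibition.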

Key:
Assay in all cases: NCI tumour cell line growth inhibition, 48 h
SF-268 CNS = system: SF-268 CNS
NCI-H226 lung = system: NCI-H226 lung
LOX IMVI melanoma = system: LOX IMVI melanoma
U251 CNS = system: U251 CNS
SF-295 CNS = system: SF-295 CNS
MALME-3M melanoma = system: MALME-3M melanoma
KM12 colon = system: KM12 colon
SNB-75 CNS = system: SNB-75 CNS
UO-31 renal = system: UO-31 renal
HCT-15 colon = system: HCT-15 colon

Structure (SMILES)	TGI (SF-268 CNS)	TGI (NCI-H226 lung)	TGI (LOX IMVI melanoma)	TGI (U251 CNS)	TGI (SF-295 CNS)	TGI (MALME-3M melanoma)	TGI (KM12 colon)	TGI (SNB-75 CNS)	TGI (UO-31 renal)	TGI (HCT-15 colon)	GI50 (SF-268 CNS)	GI50 (NCI-H226 lung)	GI50 (LOX IMVI melanoma)	GI50 (U251 CNS)	GI50 (SF-295 CNS)	GI50 (MALME-3M melanoma)	GI50 (KM12 colon)	GI50 (UO-31 renal)	GI50 (HCT-15 colon)	GI50 (SNB-75 CNS)
Cc1ccc(S(=O)(=O)N2CCC(C(=O)O)(c3ccccc3)CC2)cc1	> 100 µM	> 100 µM	> 100 µM	> 100 µM	> 100 µM	> 100 µM	> 100 µM	> 100 µM	> 100 µM	> 100 µM	–	–	–	–	–	–	–	–	–	–
COc1cc(CCc2ccc(OC(C)=O)cc2)cc(OC)c1OC	> 100 µM	> 100 µM	> 100 µM	> 100 µM	> 100 µM	> 100 µM	> 100 µM	> 100 µM	> 100 µM	> 100 µM	–	–	–	–	–	–	–	–	–	–
Nc1nc(=S)c2[nH]cnc2[nH]1	> 100 µM and 149 µM and 84 µM	> 59.5 µM and 106 µM and 102 µM	2.23 µM and 8.64 µM and 19.4 µM	> 100 µM and 241 µM and > 226 µM	–	10.9 µM and 24.7 µM and 29.3 µM	–	> 86 µM and 45.8 µM and > 250 µM	–	> 100 µM and 51.6 µM and 38.9 µM	0.525 µM and 0.926 µM	0.72 µM and 6.95 µM	0.136 µM and 0.488 µM	1.49 µM and 3.11 µM	0.209 µM and 1.24 µM	0.583 µM and 3.13 µM and 1.43 µM	0.816 µM and 3.25 µM and 3.14 µM	0.43 µM and 0.823 µM and 0.488 µM	0.515 µM and 2.51 µM and 1.7 µM	–
Cc1ccnc(Nc2ccc([N+](=O)[O-])c(NCCN3CCOCC3)n2)c1	42.4 µM	–	27.9 µM	> 100 µM	29.6 µM	–	–	20.1 µM	30.7 µM	31.5 µM	0.00926 µM and 0.059 µM	0.0594 µM	0.0052 µM	0.00524 µM	0.00355 µM	0.00617 µM	0.00464 µM	0.0461 µM	0.0061 µM	0.00243 µM
COc1cc(N(CCC#N)CCC#N)ccc1/C(N=Nc1ccc(C(=O)O)cc1)=N/NC(=O)c1cc(Br)ccc1O	119 µg/mL	> 150 µg/mL	> 150 µg/mL	> 150 µg/mL	> 150 µg/mL	> 150 µg/mL	> 150 µg/mL	130 µg/mL	> 150 µg/mL	95 µg/mL	29.9 µg/mL	53.2 µg/mL	84.4 µg/mL	> 150 µg/mL	96.4 µg/mL	> 150 µg/mL	50.3 µg/mL	107 µg/mL	35.8 µg/mL	57.2 µg/mL
CC(=O)[O-].[Mn+3].[O-]c1ccc(Cl)cc1C=NCCN=Cc1cc(Cl)ccc1[O-]	> 100 µM	> 100 µM	> 100 µM	> 100 µM	> 100 µM	> 100 µM	> 100 µM	> 100 µM	> 100 µM	> 100 µM	> 100 µM	> 100 µM	38.6 µM	> 100 µM	> 100 µM	34.7 µM	> 100 µM	> 100 µM	> 100 µM	> 100 µM
C#CC#CC#CC#CC#CC#CC#CC#CC[C@@H]1OC[C@@H](COC(=O)O[C@@H](C(=O)O[C@H]2C[C@@]3(O)[C@@H](OC(=O)c4ccccc4)[C@@H]4[C@]5(OC(C)=O)CO[C@@H]5C[C@H](O)[C@@]4(C)C(=O)[C@H](OC(C)=O)C(=C2C)C3(C)C)[C@@H](NC(=O)c2ccccc2)c2ccccc2)O1	> 33.3 µM	> 33.3 µM	> 33.3 µM	> 33.3 µM	2.41 µM	> 33.3 µM	> 33.3 µM	0.469 µM	> 33.3 µM	> 33.3 µM	0.593 µM	> 9.56 µM	0.0935 µM	0.316 µM	0.579 µM	0.721 µM	0.191 µM	3.39 µM	1.11 µM	0.0599 µM
OCCCCC#Cc1ccccc1C#Cc1ccc(C(F)(F)F)cc1	48 µM	34.1 µM	31.5 µM	28.6 µM	34.5 µM	35.5 µM	29.8 µM	30.2 µM	30.3 µM	25.4 µM	22 µM	18.7 µM	17.1 µM	14.8 µM	19.1 µM	19.7 µM	13.9 µM	16.3 µM	12.5 µM	15.8 µM
Cn1ccnc1C(=O)/C=C/c1ccc(C(=O)Nc2c(F)c(F)c(F)c(F)c2F)cc1	4.42 µM	8.49 µM	2.87 µM	2.34 µM	3.64 µM	5.91 µM	2.71 µM	2.69 µM	2.79 µM	4.3 µM	1.81 µM	2.7 µM	1.5 µM	1.09 µM	1.85 µM	2.1 µM	1.14 µM	1.47 µM	1.11 µM	1.33 µM
COc1ccc(-c2cc(-c3ccco3)c(C#N)c(=O)[nH]2)cc1	> 100 µM	> 100 µM	> 100 µM	40.1 µM	> 100 µM	75.7 µM	> 100 µM	> 100 µM	> 100 µM	> 100 µM	–	–	–	–	–	–	–	–	–	–
